Measurements from patent publication US20070219146A1, “Synergistic Pharmaceutical And/Or Neutraceutical Flavanoid Composition For Management Of Diabetes Mellitus” (priority 2006, published 2007).

Assays:
Alloxan diabetic mice [1] = assay: Acute study of Cocoa Flavanoid, blood sugar level in Alloxan diabetic mice; assay type: in vivo, Swiss Albino mice (male); details: Glyburide 10 mg/kg; for Summary in percentage (Blood sugar level): reduction versus Normal
Experimental: Swiss Albino mice (male) in the weight range 25 to 30 grams were studied for acute affect. They were made diabetic by the admnistration of Alloxan (with admnistration of 70 mg/kg Alloxan and in 48 hours the animals develop diabetes). As the mice became diabetic and the blood sugar was above […], they were grouped into […] of six each. Each group was administered by the test drug at 25 mg/kg, 50 mg/kg 100 mg/kg and 250 mg/kg body weight. One group was administered a positive control drug glyburide at 10 mg/kg of body weight. Blood samples were drawn at 2 hour, 4 hour, 6 hour and 24 hour intervals for all mice. The blood sugar pattern is studied. It has been found out that the best results are obtained for a dose of 50 mg/kg body weight at 2 hours after administration and it increases up to the 6th hour. Good result is obtained for 100 mg/kg drug. […] The effect of 50 mg/kg compared very well with the effect of positive control drug glyburide at 10 mg/kg body weight.
This is an interesting finding that the hypoglycemic effect is best for a dose ranging between 50 mg to 100 mg/kg of body weight.

Alloxan diabetic mice [2] = assay: Sub acute study (28 days) of Cocoa Flavanoid, blood sugar level in Alloxan diabetic mice; assay type: in vivo, Swiss Albino mice (Male); details: Glyburide 10 mg/kg; for Summary in percentage (Blood sugar level): reduction versus Normal
Experimental: Swiss Albino mice (Male) in the weight range of 25 to 30 gram were studied for sub acute effect for 28 days. The mice were made diabetic by admnistration of Alloxan. As the mice became diabetic and the blood sugar was above […] they were chosen for the study. 4 groups were made. One group was given 50 mg/kg, 2nd group 100 mg/kg, 3rd group 250 mg/kg and the 4th group positive control glyburide at 10 mg/kg. Treatment was given for 28 days.
A very interesting observation was made that the best effect was produced by the dose of 100 mg/kg body weight. The effect started by 7th day and increased up to 28th day. […] Unlike acute study, the sub acute study has confirmed that 100 mg/kg given the most optimal blood sugar reduction. This effect was sustained after the removal of treatment on 35th day.

Q: `COc1ccc(Cl)cc1C(=O)NCCc1ccc(S(=O)(=O)NC(=O)NC2CCCCC2)cc1` [Glyburide] was tested. Which “Blood sugar level (reading)” value (Alloxan diabetic mice [1]; 2 hour) did it give?
A: 317.50

Q: What about the “Summary in percentage (Blood sugar level)” value (shortened to “Summary in percentage”) (Alloxan diabetic mice [1]; 2 hour) of the same compound?
A: 15%

Q: And the “Blood sugar level (reading)” value (Alloxan diabetic mice [1]; 4 hour)?
A: 266.16

Q: And the “Summary in percentage” value (Alloxan diabetic mice [1]; 4 hour)?
A: 29%

Q: What about the “Blood sugar level (reading)” value (Alloxan diabetic mice [1]; 6 hour) of the same compound?
A: 149.50

Q: And the “Summary in percentage” value (Alloxan diabetic mice [1]; 6 hour)?
A: 60%

Q: What about the “Blood sugar level (reading)” value (Alloxan diabetic mice [1]; 24 hour) of the same compound?
A: 228.66

Q: And the “Summary in percentage” value (Alloxan diabetic mice [1]; 24 hour)?
A: 39%

Q: What about the “Blood sugar level (reading)” value (Alloxan diabetic mice [1]; Normal (before administration)) of the same compound?
A: 374.33

Q: And the “Blood sugar level (reading)” value (Alloxan diabetic mice [2]; Normal (before treatment))?
A: 396.09

Q: What about the “Blood sugar level (reading)” value (Alloxan diabetic mice [2]; day 7) of the same compound?
A: 323.46

Q: And the “Summary in percentage” value (Alloxan diabetic mice [2]; day 7)?
A: 18%

Q: What about the “Blood sugar level (reading)” value (Alloxan diabetic mice [2]; day 14) of the same compound?
A: 265.46

Q: And the “Summary in percentage” value (Alloxan diabetic mice [2]; day 14)?
A: 33%

Q: What about the “Blood sugar level (reading)” value (Alloxan diabetic mice [2]; day 21) of the same compound?
A: 170.82

Q: What about the “Summary in percentage” value (Alloxan diabetic mice [2]; day 21) of the same compound?
A: 57%

Q: And the “Blood sugar level (reading)” value (Alloxan diabetic mice [2]; day 28)?
A: 137.90

Q: What about the “Summary in percentage” value (Alloxan diabetic mice [2]; day 28) of the same compound?
A: 65%
